Experimental data: patent publication US10562939B2, “Method for significantly increasing lentiviral production” (priority 2016, dated 2020)

How the values were obtained:
[1] = target: T1, interaction between HIV-1 MA and arginyl-tRNA synthetase (RRS) (Homo sapiens, UniProt P54136); experiment: Co-immunoprecipitation of RRS with HIV-1 MA (control); type: binding
T1 construct: endogenous in cells; host or cells: 293A-MA-FH cells (RRS endogenous; MA-flag stably expressed)
T1 sequence (P54136 1-660): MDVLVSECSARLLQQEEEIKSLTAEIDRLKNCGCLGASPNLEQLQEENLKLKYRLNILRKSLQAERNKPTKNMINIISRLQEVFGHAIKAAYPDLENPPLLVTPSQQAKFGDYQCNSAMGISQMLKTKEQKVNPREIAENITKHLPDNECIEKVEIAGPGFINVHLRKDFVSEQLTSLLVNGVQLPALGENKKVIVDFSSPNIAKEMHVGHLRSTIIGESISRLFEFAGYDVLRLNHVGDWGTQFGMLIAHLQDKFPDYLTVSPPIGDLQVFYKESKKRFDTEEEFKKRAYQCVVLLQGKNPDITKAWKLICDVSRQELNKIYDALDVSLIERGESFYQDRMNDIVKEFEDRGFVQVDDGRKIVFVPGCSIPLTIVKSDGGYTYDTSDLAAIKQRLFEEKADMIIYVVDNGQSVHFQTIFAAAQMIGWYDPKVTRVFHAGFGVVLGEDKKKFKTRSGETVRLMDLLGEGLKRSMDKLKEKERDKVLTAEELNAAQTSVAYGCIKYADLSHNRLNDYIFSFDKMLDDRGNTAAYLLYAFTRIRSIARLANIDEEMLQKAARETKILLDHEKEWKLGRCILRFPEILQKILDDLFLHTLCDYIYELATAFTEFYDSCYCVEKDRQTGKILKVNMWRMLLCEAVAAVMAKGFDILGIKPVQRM
Procedure: As a control, the interaction between MA and another MA-interacting protein, arginyl-tRNA synthetase (RRS), a subunit of the aminoacyl-tRNA synthetase complex, was also evaluated. The coimmunoprecipitation of RRS and HIV-1 MA was not affected by addition of myristic acid (FIG. 1D).

[2] = system: HIV-1 virion production in 293A cells; experiment: Virus-like particle (VLP) detection, 293A cells transfected with pNL4.3luc, CA Western blot; details: 20-40 micromolar, 48 hours, FIG. 4C
human HO-2 = target: T2, human HO-2 (Homo sapiens, UniProt P30519); experiment: Fatty acid binding to HO-2 (crystal structure); details: FIG. 2E
T2 construct: The HO-2 gene fragment encoding amino acid residues 30-242 was cloned into a pET28a vector; made in house; host or cells: Escherichia coli BL21 (DE3) Star
T2 sequence (P30519 30-242): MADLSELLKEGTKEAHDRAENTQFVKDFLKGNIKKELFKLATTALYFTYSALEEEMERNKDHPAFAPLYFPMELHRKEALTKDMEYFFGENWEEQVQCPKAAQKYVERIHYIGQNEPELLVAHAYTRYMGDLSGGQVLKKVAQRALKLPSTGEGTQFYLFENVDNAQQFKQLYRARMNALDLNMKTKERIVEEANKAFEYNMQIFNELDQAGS
Procedure: To make the myristate complex, sodium myristate was dissolved in water at 50° C., and mixed with 20 mg/ml protein solution and incubated at 37° C. water bath for 30 min. The complex solution was then used to set up crystallization by mixing with (0.1 M Bis-Tris, (pH 5.5), 28% (w/v) polyethylene glycol 550 monomethyl ether, and 5 mM MgCl2). Crystals were directly flash-frozen in liquid nitrogen.
The laurate complex crystals were obtained by soaking apo crystals in well solution with 5 mM sodium laurate overnight and transferred to well solution with 35% (w/v) of precipitant before flash-frozen in liquid nitrogen. The crystals belong to space group P212121 and there are four protein molecules in the asymmetric unit.
X-ray diffraction data sets were collected at beamline 24-ID-E of the Advanced Photon Source (APS). The data were processed with the HKL package (Otwinowski and Minor, 1997). The structures were solved by molecular replacement using entry 2Q32 from the Protein Data Bank as the model. The myristate and laurate were manually added with Coot (Emsley and Cowtan, 2004) and refined with Phenix (Adams et al., 2002).
The crystal structure was also determined at 2.1 Å resolution of human HO-2 in complex with the C12 fatty acid laurate (FIG. 2E, Table 1B). The crystal was isomorphous to that of the myristate complex. […]

CCCCCCCCCCCCCC(=O)O [myristic acid]
coimmunoprecipitation of RRS and HIV-1 MA ([1]; myristic acid added to cell lysates, FIG. 1D): not affected

C=CC1=C(C)C2=Cc3c(C=C)c(C)c4[n]3[Sn]([Cl])([Cl])[n]3c(c(C)c(CCC(=O)O)c3=CC3=NC(=C4)C(C)=C3CCC(=O)O)=CC1=N2 [SnPPIX, tin protoporphyrin IX dichloride]
virus yield (CA levels in virions) [2]: dramatic increases in virus yield | interaction between HIV-1 MA and RRS ([1]; increasing concentrations of SnPPIX, FIG. 4B): no effect

CCCCCCCCCCCC(=O)O [laurate]
binding to HO-2 (human HO-2): could indeed bind
